These results are taken from patent US8507470B2, “Substituted arylamide oxazepinopyrimidone derivatives” (Sanofi, priority 2008, dated 2013).

The target of data set [1] is GSK3β (Homo sapiens, UniProt P49841). The experiment in a line: Inhibitory activity against GSK3β (33P-ATP phosphorylation of prephosphorylated GS1 peptide). In kind it is biochemical. Conditions: protocol 4: commercial GSK3beta (Millipore), 7.5 μM GS1 peptide, 10 μM ATP, 90 minutes at room temperature. Here is the method:
Test Example: Inhibitory Activity of the Medicament of the Present Invention against GSK3β: Four different protocols can be used. In a first protocol: 7.5 μM of prephosphorylated GS1 peptide and 10 μM ATP (containing 300,000 cpm of ^33P-ATP) were incubated in 25 mM Tris-HCl, pH 7.5, 0.6 mM DTT, 6 mM MgCl2, 0.6 mM EGTA, 0.05 mg/ml BSA buffer for 1 hour at room temperature in the presence of GSK3beta (total reaction volume: 100 microliters). In a second protocol: 4.1 μM of prephosphorylated GS1 peptide and 42 μM ATP (containing 260,000 cpm ^33P-ATP) were incubated in 80 mM Mes-NaOH, pH 6.5, 1 mM Mg acetate, 0.5 mM EGTA, 5 mM 2-mercaptoethanol, 0.02% Tween 20, 10% glycerol buffer for 2 hours at room temperature in the presence of GSK3beta. In a third protocol: 7.5 μM of prephosphorylated GS1 peptide and 10 μM ATP (containing 300,000 cpm of ^33P-ATP) were incubated in 50 mM Hepes, pH 7.2, 1 mM DTT, 1 mM MgCl2, 1 mM EGTA, 0.01% Tween 20 buffer for one hour at room temperature in the presence of GSK3beta (total reaction volume: 100 microliters). In a fourth protocol: 7.5 μM of prephosphorylated GS1 peptide and 10 μM ATP (containing 300,000 cpm of ^33P-ATP) were incubated in 50 mM Hepes, pH 7.2, 1 mM DTT, 1 mM MgCl2, 1 mM EGTA, 0.01% Tween 20 buffer for 90 minutes at room temperature in the presence of commercial GSK3beta (Millipore) (total reaction volume: 100 microliters). Inhibitors were solubilised in DMSO (final solvent concentration in the reaction medium, 1%). The reaction was stopped with 100 microliters of a solution made of 25 g polyphosphoric acid (85% P2O5), 126 ml 85% H3PO4, H2O to 500 ml and then diluted to 1:100 before use. An aliquot of the reaction mixture was then transferred to Whatman P81 cation exchange filters and rinsed with the solution described above. Incorporated ^33P radioactivity was determined by liquid scintillation spectrometry. The phosphorylated GS-1 peptide had the following sequence: NH2-[…](P)EDEE-COOH.(Woodgett, J. R. (1989) Analytical Biochemistry 180, 237-241.

Counter-ions that a name gives are not always drawn.

By melting point is commonly meant the temperature of the solid-liquid transition. As usually defined, the IC50 is the point on the concentration scale where inhibition reaches its midpoint. Higher therefore signals a need for much substance.

Sequence of GSK3β (P49841 whole entry): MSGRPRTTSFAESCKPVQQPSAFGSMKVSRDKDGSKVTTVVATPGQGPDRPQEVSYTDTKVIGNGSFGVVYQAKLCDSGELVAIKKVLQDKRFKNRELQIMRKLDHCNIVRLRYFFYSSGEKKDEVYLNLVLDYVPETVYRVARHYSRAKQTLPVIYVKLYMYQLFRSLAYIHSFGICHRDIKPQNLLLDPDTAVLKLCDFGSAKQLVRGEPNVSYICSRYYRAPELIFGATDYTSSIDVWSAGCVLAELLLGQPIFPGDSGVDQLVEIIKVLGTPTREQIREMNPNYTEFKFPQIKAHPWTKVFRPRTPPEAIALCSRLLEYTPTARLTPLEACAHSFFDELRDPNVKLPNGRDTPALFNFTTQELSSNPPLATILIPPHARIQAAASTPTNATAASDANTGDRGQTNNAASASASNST

In the case of `COc1ccccc1CNC1COCCn2c1nc(-c1ccncn1)cc2=O` (racemic) (as salt: HCl) [compound No. 21, (+/−)-9-(2-Methoxy-benzylamino)-2-pyrimidin-4-yl-5,6,8,9-tetrahydro-7-oxa-1,4a-diaza-benzocyclohepten-4-one], the melting point was in the range of 254 to 256 °C.
In the case of `COc1ccc(S(N)(=O)=O)cc1C(=O)NC1COCCn2c1nc(-c1ccncn1)cc2=O` (racemic) [compound No. 7, (+/−)-2-Methoxy-N-(4-oxo-2-pyrimidin-4-yl-5,6,8,9-tetrahydro-4H-7-oxa-1,4a-diaza-benzocyclohepten-9-yl)-5-sulfamoyl-benzamide], the melting point was 257 to 259 °C. This compound also gave an IC50 in data set [1] of 0.5 nM.
The corresponding values for `CC(=O)Oc1ccccc1C(=O)NC1COCCn2c1nc(-c1ccncn1)cc2=O` (racemic) [compound No. 14, (+/−)-Acetic acid 2-(4-oxo-2-pyrimidin-4-yl-5,6,8,9-tetrahydro-4H-7-oxa-1,4a-diaza-benzocyclohepten-9-ylcarbamoyl)-phenyl ester] are 202 to 204 °C and 10 nM.
For `COc1ccc(Cl)cc1C(=O)NC1COCCn2c1nc(-c1ccncc1)cc2=O` (racemic) [compound No. 19, (+/−)-5-Chloro-2-methoxy-N-(4-oxo-2-pyridin-4-yl-5,6,8,9-tetrahydro-4H-7-oxa-1,4a-diaza-benzocyclohepten-9-yl)-benzamide] the same measures were 235 to 237 °C and 2 nM.
For the compound `COc1ccccc1CNC1COCCn2c1nc(-c1ccncn1)cc2=O` (racemic) [compound No. 21, (+/−)-9-(2-Methoxy-benzylamino)-2-pyrimidin-4-yl-5,6,8,9-tetrahydro-7-oxa-1,4a-diaza-benzocyclohepten-4-one], in data set [1], the IC50 was 41 nM.
